Patent US20030064380A1, “Anergy-regulated molecules” (The Center For Blood Research, Inc., priority 2001, published 2003)

System: D5 Th1 T cell line
Test: nucleic acid expression profile of D5 Th1 T cell line stimulated with 500 nM ionomycin, 1 μM CsA plus ionomycin or 20 nM PMA plus ionomycin; 11K chip, first replicate
Format: cell-based, murine
Parameters: expression level of Msa.15983.0_f_at / expression level of Msa.1669.0_f_at / expression level of Msa.18713.0_g_at / expression level of D86609_s_at / expression level of TC19211_at / expression level of TC21156_at / expression level of TC24045_at / expression level of TC30384_g_at / expression level of TC3225_at / expression level of TC38978_at / expression level of TC39080_at / expression level of TC17495_at: unit not given here
Experimental: D5 or primary T cells from NFAT1−/− or wild type DO11.10 transgenic mice were stimulated for 2, 6 or 16 hours with 500 nM ionomycin, 20 nM PMA plus 500 nM ionomycin, or 1 μM CsA plus 500 nM ionomycin. Total RNA was isolated with an RNeasy kit (QIAGEN). Ten μg of total RNA was quantitatively amplified and biotin-labeled as described (Byrne et al., (2000) “Preparation of mRNA for Expression Monitoring” Current Protocols in Molecular Biology (John Wiley & Sons, Inc.) pp. 22.22.21-22.22.13). Hybridization to GeneChips® (Affymetrix) displaying probes for 11,000 mouse genes/ESTs was performed at 40° C. overnight in a mix that included 10 μg fragmented RNA, 6× SSPE, 0.005% Triton X-100 and 100 μg/ml herring sperm DNA in a total volume of 200 μl. Chips were washed, stained with SA-PE and read using an Affymetrix GeneChip® scanner and accompanying gene expression software. Labeled bacterial RNAs of known concentration were spiked into each chip hybridization mix to generate an internal standard curve, allowing normalization between chips and conversion of raw hybridization intensity values to mRNA frequency (mRNA molecules per million).
Nucleic acid expression profiles were obtained from a T cell line at multiple time points and in various T cell states. The D5 Th1 T cell line was stimulated in three different ways: 1) ionomycin alone (e.g., causing the regulatory factor NFAT to move from the cytoplasm to the nucleus); 2) ionomycin+PMA (e.g., causing both NFAT and the transcription factor AP-1 to enter the nucleus); 3) ionomycin +cyclosporin A (CsA) (e.g., preventing NFAT from entering the nucleus in response to ionomycin). […] Cells were stimulated for 0, 2, 6, and 16 hours. RNA was isolated and analyzed on a nucleic acid chip with probes that monitor the expression of 11,000 nucleic acids located at unique addresses. The experiment was done twice (i.e., with two replicates, Rep. 1 and Rep. 2). Nucleic acid expression at the 2, 6 and 16 hour timepoints was compared to nucleic acid expression at 0 hours.
The nucleic acid expression data was stored in a computer database. A database query was used to identify all nucleic acids that were deemed “increasing” or “decreasing” in response to ionomycin (relative to the 0 hour sample) in at least one timepoint in Rep. 1, and the nucleic acids were also deemed “increasing” or “decreasing” in response to ionomycin in Rep. 2.
To test the hypothesis that NFAT in the absence of AP-1 and NFKB induced a genetic program of anergy, genes induced in D5 T cells by ionomycin stimulation alone were evaluated (FIGS. 1, 2 and 6). Samples from D5 cells stimulated with ionomycin plus CsA, which blocks anergy induction, and ionomycin plus PMA, which pharmacologically mimic complete stimulation through the TCR and CD28 were included. RNA was prepared from unstimulated D5 T cells and from cells stimulated for 2, 6 or 16 h under these three conditions, and gene transcription profiles were evaluated using Affymetrix oligonucleotide arrays (FIG. 6A).

For `C[C@H](CCC(=O)O)C[C@H](C)C[C@H](C)C(=O)/C=C(\O)[C@H](C)C[C@H](C)C/C=C/[C@@H](C)[C@@H](O)[C@@H](C)[C@@H](O)C[C@@H]1CC[C@@](C)([C@H]2CC[C@@](C)([C@@H](C)O)O2)O1` [Ionomycin, ionomycin], the “expression level of TC30384_g_at” value (6 h) was 73, the “expression level of TC30935_at” value (6 h) was 27 and the “expression level of TC30992_s_at” value (6 h) was 4. The “expression level of TC31681_at” value (6 h) was 28, the “expression level of TC33206_at” value (6 h) was 8 and the “expression level of TC33833_at” value (6 h) was 8. The “expression level of TC34186_at” value (6 h) was 26, the “expression level of TC36089_at” value (6 h) was 122 and the “expression level of TC36583_at” value (6 h) was 20. For the same compound, the “expression level of TC37631_at” value (6 h) was 27, the “expression level of TC38094_at” value (6 h) was 7 and the “expression level of TC38978_at” value (6 h) was 9. The “expression level of TC39012_at” value (6 h) was 45, the “expression level of TC39080_at” value (6 h) was 14 and the “expression level of TC39762_at” value (6 h) was 41. The “expression level of TC40487_g_at” value (6 h) was 12, the “expression level of TC41014_at” value (6 h) was 15 and the “expression level of U44731_s_at” value (6 h) was 26. For the same compound, the “expression level of X67914_s_at” value (6 h) was 62, the “expression level of Z31202_s_at” value (6 h) was 30 and the “expression level of aa144045_s_at” value (6 h) was 39. For the same compound, the “expression level of aa174748_at” value (6 h) was 23, the “expression level of c81206_rc_at” value (6 h) was 16 and the “expression level of k00083_s_at” value (6 h) was 32. For the same compound, the “expression level of x12531_s_at” value (6 h) was 34, the “expression level of D86609_s_at” value (16 h) was 20 and the “expression level of ET63436_at” value (16 h) was 86. For the same compound, the “expression level of MIP1-B_at” value (16 h) was 119, the “expression level of Msa.11439.0_s_at” value (16 h) was 34 and the “expression level of Msa.15983.0_f_at” value (16 h) was 17. The “expression level of Msa.1669.0_f_at” value (16 h) was 35, the “expression level of Msa.18713.0_g_at” value (16 h) was 28 and the “expression level of Msa.21745.0_s_at” value (16 h) was 6. For the same compound, the “expression level of TC3225_at” value (16 h) was 23, the “expression level of TC14671_g_at” value (16 h) was 13 and the “expression level of TC16364_at” value (16 h) was 34. The “expression level of TC16828_at” value (16 h) was 30, the “expression level of TC17132_at” value (16 h) was 32 and the “expression level of TC17495_at” value (16 h) was 12. For the same compound, the “expression level of TC17558_at” value (16 h) was 23, the “expression level of TC18221_at” value (16 h) was 11 and the “expression level of TC19211_at” value (16 h) was 12. The “expression level of TC21156_at” value (16 h) was 16, the “expression level of TC23346_s_at” value (16 h) was 13 and the “expression level of TC23450_s_at” value (16 h) was 13. The “expression level of TC24045_at” value (16 h) was 15, the “expression level of TC24067_at” value (16 h) was 15 and the “expression level of TC25965_at” value (16 h) was 16. The “expression level of TC27326_g_at” value (16 h) was 29, the “expression level of TC29889_at” value (16 h) was 11 and the “expression level of TC30384_g_at” value (16 h) was 57. The “expression level of TC30935_at” value (16 h) was 22, the “expression level of TC30992_s_at” value (16 h) was 6 and the “expression level of TC31681_at” value (16 h) was 18. The “expression level of TC33206_at” value (16 h) was 6, the “expression level of TC33833_at” value (16 h) was 6 and the “expression level of TC34186_at” value (16 h) was 13. For the same compound, the “expression level of TC36089_at” value (16 h) was 75, the “expression level of TC36583_at” value (16 h) was 18 and the “expression level of TC37631_at” value (16 h) was 26. For the same compound, the “expression level of TC38094_at” value (16 h) was 7, the “expression level of TC38978_at” value (16 h) was 12 and the “expression level of TC39012_at” value (16 h) was 35. The “expression level of TC39080_at” value (16 h) was 14, the “expression level of TC39762_at” value (16 h) was 31 and the “expression level of TC40487_g_at” value (16 h) was 8. For the same compound, the “expression level of TC41014_at” value (16 h) was 12, the “expression level of U44731_s_at” value (16 h) was 17 and the “expression level of X67914_s_at” value (16 h) was 51. The “expression level of Z31202_s_at” value (16 h) was 22, the “expression level of aa144045_s_at” value (16 h) was 33 and the “expression level of aa174748_at” value (16 h) was 22. For the same compound, the “expression level of c81206_rc_at” value (16 h) was 15, the “expression level of k00083_s_at” value (16 h) was 35 and the “expression level of x12531_s_at” value (16 h) was 97.
